Assays:
GST-Xa-hAAK1 = molecular target: T1, GST-Xa-hAAK1 (Homo sapiens, UniProt Q2M2I8); assay: AAK1 kinase assay; type: biochemical; conditions: given as IC50 range; ATP 22 μM, 3 hours at room temperature
T1 construct: made in house
In short: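 Bacterially expressed GST-Xa-hAAK1 was combined with substrates and compounds (eleven concentrations) and incubated 3 h at room temperature, then stopped with EDTA. Fluorescent substrate and phosphorylated product were separated electrophoretically (Caliper LabChip), and IC50 values came from non-linear regression.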

[1] = molecular target: T2, AAK1 (full length human) with AP2M1 in HEK293F cells (Homo sapiens, UniProt Q2M2I8); assay: HEK281 cell-based assay (phospho-mu2 Western blot in transfected HEK293F cells); conditions: 3 hours, inhibition of mu2 phosphorylation
T2 construct: expressed in transfected cells; host or cells: HEK293F
T2 sequence (Q2M2I8 whole entry): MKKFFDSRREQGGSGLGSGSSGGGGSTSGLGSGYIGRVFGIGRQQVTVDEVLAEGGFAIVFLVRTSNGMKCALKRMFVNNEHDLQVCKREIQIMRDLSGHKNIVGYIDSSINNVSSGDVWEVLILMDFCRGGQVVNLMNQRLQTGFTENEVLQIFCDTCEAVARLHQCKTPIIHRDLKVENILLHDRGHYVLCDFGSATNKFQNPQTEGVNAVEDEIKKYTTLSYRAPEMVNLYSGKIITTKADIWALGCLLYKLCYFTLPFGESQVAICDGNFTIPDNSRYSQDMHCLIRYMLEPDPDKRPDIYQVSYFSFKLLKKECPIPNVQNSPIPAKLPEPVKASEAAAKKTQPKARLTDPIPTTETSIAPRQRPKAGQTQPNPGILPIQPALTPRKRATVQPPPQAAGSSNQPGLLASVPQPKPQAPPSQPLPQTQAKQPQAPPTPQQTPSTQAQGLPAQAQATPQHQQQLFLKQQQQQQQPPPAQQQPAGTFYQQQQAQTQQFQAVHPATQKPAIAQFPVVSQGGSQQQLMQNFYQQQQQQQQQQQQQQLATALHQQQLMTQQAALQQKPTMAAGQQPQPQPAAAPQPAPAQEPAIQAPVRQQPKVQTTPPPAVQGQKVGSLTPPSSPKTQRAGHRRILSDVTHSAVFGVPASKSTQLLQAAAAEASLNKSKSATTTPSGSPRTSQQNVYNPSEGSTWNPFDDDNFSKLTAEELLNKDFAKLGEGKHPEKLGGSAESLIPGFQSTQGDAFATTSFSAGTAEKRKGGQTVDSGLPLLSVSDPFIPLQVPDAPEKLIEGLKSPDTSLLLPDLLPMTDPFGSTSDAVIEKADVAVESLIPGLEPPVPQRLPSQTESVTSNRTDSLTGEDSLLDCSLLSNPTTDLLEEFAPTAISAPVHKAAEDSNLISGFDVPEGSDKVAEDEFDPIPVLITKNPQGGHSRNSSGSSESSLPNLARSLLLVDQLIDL
Protocol: HEK293F cells were cultured in media containing DMEM (Gibco, cat. #11965), 10% FBS (SAFC Biosciences, cat. #12103C), 1×GPS (glutamine, penicillin and streptomycin). On day one, cells were plated on a 10 cm dish so that they are ˜80% confluent at time of transfection. Roughly 12 million cells were in a 10 cm dish at time of transfection. On day two, each dish was transfected with 48 ug DNA and 144 ul Lipofectamine 2000 (Invitrogen, cat. #11668-019). The DNA was comprised of a mixture (per 10 cm dish) containing 3 ug AAK1/HA/pIRES (full length human, NCBI accession no. NP_055726.2), 45 μg Flag/AP2MI/pcDNA (full length human), and 1.5 ml OPTI-MEM. The Lipofectamine 2000 is made up of a mixture (per 10 cm dish) containing 144 μl Lipofectamine 2000 and 1.5 ml OPTI-MEM. Each mixture was transferred to individual 15 ml tubes and incubated at RT for 5 minutes, and then the two mixes were combined and incubated at RT for 20 minutes. Growth media was then aspirated from each 10 cm plate and replaced with 10 ml of DMEM+10% FBS (no GPS). Finally, 3 ml DNA/Lipofectamine mix was added to each 10 cm dish and mix gently followed by incubate of plate overnight at 37° C. and 5% CO2.
On day three, compounds were diluted in 100% DMSO at 1000× final concentration, followed by 3-fold serial dilutions for a total of 5 concentrations tested. Four compounds were tested per 10 cm dish. One ul of each compound dilution was then pipetted into a deep-well, 96-well plate, followed by addition of 500 μl DMEM+0.5% FBS into each well for a 2× final concentration of each compound. Cells were resuspended in a 10 cm dish by simple pipetting (HEK293 cells come off the plate that easy at this point) and then transferred to a 50 ml conical tube and pelleted by centrifugation at 1000 rpm for 5 min. Cell pellets were then resuspended in 2.75 ml DMEM+0.5% FBS per 10 cm dish and 100 μl of cell suspension transferred into each well of 96-well TC plate. Finally, 100 μl of 2× compound diluted in DMEM+0.5% FBS was then added into wells containing cell suspension for a 1× final concentration. Plates were then incubated at 37° C. and 5% CO2 for 3 hours followed by transferring of cell suspensions from each well into 12-tube PCR strips. The PCR strips were spun in a tip rack at 1000 rpm for 5 minutes to pellet cells and media was then removed by pipetting without disturbing the cell pellet.
To prepare for Western Blot analysis, cell pellets were resuspend in 40 ul 1×LDS-PAGE sample buffer (Invitrogen, cat. # NP0008)+2× Halt phosphatase and protease inhibitor cocktail (Thermo Scientific, cat. #1861284), followed by sonicating each with microtip sonicator set at 5 for 8-10 seconds. Five ul of 10× NuPage Sample Reducing Agent (with […]) was to each sample followed by heat denaturing at 70 C for 10 min on PCR machine. A total of 10 μl per sample was loaded into each lane of a 4-20% Tris-Glycine Criterion 26-well gel (Biorad, cat. #345-0034) for the phospho-mu2 blot and 10 μl per lane in a 4-12% Bis-Tris (+MES buffer) NuPAGE 26-well gel (Invitrogen, cat. # WG1403BX10) for the mu2 blot. For controls, 2 ng of phospho-mu2 or 20 ng mu2/Flag proteins were loaded in the last well of each gel. After SDS-PAGE, samples on each gel were transferred to PVDF membrane using an iBlot and membranes were blocked for one hour in TBST+5% milk, followed by wash 3× for 5-10 min with TBST. Criterion gels were probed with rabbit anti-phospho-mu2 (1:5000; a rabbit polyclonal antibody produced by New England Peptide and affinity purified at Lexicon) in TBST+5% BSA, whereas, NuPAGE gels were probed with mouse anti-Flag (1:500; Sigma, cat. # F1804) in TBST+5% milk, and these primary antibodies were incubated overnight at 4° C. on a rocker. […]

[2] = system: formalin paw test in mice; assay: formalin paw test (pain response); type: in vivo
Protocol: AAK1 homozygous (−/−) and their wild-type (+/+) littermates were tested using the formalin paw test in order to assess their acute and tonic nociceptive responses. For these tests, Automatic Nociception Analyzers (purchased from the Ozaki lab at University of California, San Diego) were used. A metal band was placed around the left hind paw of each mouse 30 minutes prior to testing. After the 30-minute acclimation period, 20 μl of 5% formalin is subcutaneously injected in the dorsal surface of the left hind paw. Mice were individually housed in cylindrical chambers for 45 minutes. Fresh 5% formalin solution was prepared by diluting formaldehyde (Formalde-fresh 20%, Fisher Scientific, Fair Lawn, N.J.) with distilled water. Investigatory compounds were administered 30 minutes prior to formalin injection.
A computer recorded flinches per minute, total flinches for phase I (acute phase=first 8 minutes), and total flinches for phase II (tonic phase=time between minutes 20-40) through an electromagnetic field. See Yaksh T L, Ozaki G, McCumber D, Rathbun M, Svensson C, Malkmus S, Yaksh M C. An automated flinch detecting system for use in the formalin nociceptive bioassay. J Appl Physiol., 2001; 90:2386-402.
The same test was used to confirm that the administration of an AAK1 inhibitor can also affect pain response.
A compound of the disclosure was tested in this assay at different doses. Gabapentin and pregabalin were used as positive controls. Results are shown below in Table 2, wherein the effect of gabapentin at 200 mg/kg is considered a 100% response, the % response for the other compounds is relative to the 200 mg/kg dose of gabapentin, “sc” means subcutaneous administration; “po” means oral administration.

[3] = 50 mg/kg sc, relative to gabapentin 200 mg/kg = 100%

T1 sequence (Q2M2I8 whole entry): as above

Row | Compound | IC50 (GST-Xa-hAAK1) [nM] | IC50 [1] [nM] | IC50 ([1]; given as IC50 range) [nM] | Response [2, 3] [%] | Response ([2]; 200 mg/kg sc, considered a 100% response) [%]
1 | Cc1nccc2c1c(=O)[nH]c1cc(OC[C@@H](N)CC(C)C)c(F)cc12 [Example 101, (S)-8-(2-amino-4-methylpentyloxy)-9-fluoro-4-methylbenzo[c][2,7]naphthyridin-5(6H)-one] | 1 to 10 | 5.2 | – | – | –
2 | Cc1nccc2c1c(=O)[nH]c1c(F)c(OC[C@@H](N)CC(C)C)c(Cl)cc12 [Example 103, (S)-8-(2-amino-4-methylpentyloxy)-9-chloro-7-fluoro-4-methylbenzo[c][2,7]naphthyridin-5(6H)-one] | 1 to 10 | – | 10 to 100 | – | –
3 | Cc1nccc2c1c(=O)n(C)c1cc(OC[C@@H](N)CC=C(F)F)c(C#N)cc21 [Example 106, (S)-8-((2-amino-5,5-difluoropent-4-en-1-yl)oxy)-4,6-dimethyl-5-oxo-5,6-dihydrobenzo[c][2,7]naphthyridine-9-carbonitrile] | < 1 | – | < 1 | – | –
4 | NCC1(CC(=O)O)CCCCC1 [Gabapentin, gabapentin] | – | – | – | 60 | 100
5 | CC(C)C[C@H](CN)CC(=O)O [Pregabalin, pregabalin] | – | – | – | 90 | –
